According to patent US11648248B1 (King Abdulaziz University, priority 2022, dated 2023):
Values after ≈ are worked out from the molar mass of the structure shown. Like-named read-outs stand apart in the source and are kept apart here.

Experiments:
Type in all cases: cell-based
[1] = test system: Vancomycin-resistant Enterococcus fecalis ATCC-51299 (VRE ATCC-51299); experiment: MBC by plating from MIC wells; conditions: read-out: MBC VRE ATCC-51299
Excerpt: (§1) Based upon the initial results obtained, the active compounds were further screened against additional clinical isolates of methicillin-sensitive S. aureus (MSSA), methicillin-resistant S. aureus (MRSA), vancomycin-resistant S. aureus (VRSA), Staphylococcus epidermidis, vancomycin-resistant Enterococcus faecium (VRE), vancomycin-resistant Enterococcus faecalis (VRE) and Streptococcus pneumoniae, as presented in Table 2. Additionally, we examined whether the compounds were bacteriostatic (inhibit bacteria from growing) or bactericidal (kill bacteria) by determining the minimum bactericidal concentration (MBC). The MBC was determined by plating 5 μL from each well where no growth was present (in the MIC plates) onto tryptic soya agar plates and incubating plates at 37° C. for 24 hours. The MBC was categorized as the lowest concentration that generated a 99.9% reduction in bacterial colony-forming units (Table 3).

[2] = test system: Vancomycin-resistant Staphylococcus aureus (VRSA12); experiment: MBC by plating from MIC wells; conditions: read-out: MBC VRSA12
Excerpt: as §1

[3] = test system: Methicillin-resistant Staphylococcus aureus (MRSA NRS-123, USA400); experiment: MBC by plating from MIC wells; conditions: read-out: MBC MRSA NRS123 (USA400)
Excerpt: as §1

[4] = test system: Cephalosporin-resistant Streptococcus pneumoniae ATCC-15916; experiment: MBC by plating from MIC wells
Excerpt: as §1

[5] = test system: Methicillin-sensitive Staphylococcus aureus (MSSA NRS-107); experiment: MBC by plating from MIC wells; conditions: read-out: MBC MSSA NRS-107
Excerpt: as §1

[6] = test system: Staphylococcus epidermidis (NRS-101); experiment: MBC by plating from MIC wells
Excerpt: as §1

[7] = test system: Vancomycin-resistant Enterococcus faecium ATCC-700221 (VRE ATCC-700221); experiment: MBC by plating from MIC wells; conditions: read-out: MBC VRE ATCC-700221
Excerpt: as §1

[8] = test system: Methicillin-sensitive Staphylococcus aureus ATCC-6538 (MSSA ATCC-6538); experiment: MBC by plating from MIC wells; conditions: read-out: MBC MSSA ATCC-6538
Excerpt: as §1

[9] = test system: Methicillin-resistant Staphylococcus aureus (MRSA NRS-119); experiment: MBC by plating from MIC wells; conditions: read-out: MBC MRSA NRS119
Excerpt: as §1

[10] = test system: Listeria monocytogenes ATCC-19111; experiment: MIC of active MY compounds; conditions: ATCC19111, read-out: MIC L. monocytogenes ATCC-19111
[11] = test system: Methicillin-resistant Staphylococcus aureus NRS384 (MRSA USA300); experiment: MIC broth microdilution, initial screening
Description: The minimum inhibitory concentrations (MICs) of the tested compounds and control drugs (linezolid, vancomycin, gentamicin (antibiotics) and fluconazole and 5-fluorocytosine (5-FC) (antifungal drugs)) were determined using the broth microdilution method, according to guidelines outlined by the Clinical and Laboratory Standards Institute (CLSI, Clinical and Laboratory Standards Institute, Methods for antimicrobial susceptibility testing of anaerobic bacteria; approved standard, M11-A8. 8th ed., 2012; CLSI, Clinical and Laboratory Standards Institute. M27-A3 Reference Method for Broth Dilution Antifungal Susceptibility Testing of Yeasts; Approved Standard—Third Edition, Wayne, Pa., 2008) against clinically-relevant bacterial (methicillin-resistant Staphylococcus aureus (MRSA), Escherichia coli, and C. difficile strains) and fungal (Candida albicans) strains. S. aureus and E. coli were grown aerobically overnight on tryptone soy agar plates at 37° C. C. difficile was grown anaerobically on brain heart infusion supplemented agar at 37° C. for 48 hours. C. albicans was grown aerobically overnight on yeast peptone dextrose (YPD) agar plate at 35° C. Afterwards, a bacterial solution equivalent to 0.5 McFarland standard was prepared and diluted in cation-adjusted Mueller-Hinton broth (CAMHB) (for S. aureus and E. coli) to achieve a bacterial concentration of about 5×10^5 CFU/mL. C. difficile was diluted in brain heart infusion supplemented broth, supplemented with yeast extract, hemin and vitamin K to achieve a bacterial concentration of about 5×10^5 CFU/mL. C. albicans was diluted in Roswell Park Memorial Institute (RPMI 1640) medium with glutamine and without bicarbonate (GIBCO by Life Technologies, Green Island, N.Y., USA) which was buffered to pH 7.0 with 0.165 M of [3-(N-morpholino) propanesulfonic acid] (MOPS) (DOT Scientific Inc., Burton, Mich., USA) to achieve a fungal concentration of about 1.5×10^3 CFU/mL. Compounds and control drugs were added in the first row of the 96-well plates and serially diluted with the corresponding media containing bacteria. Plates were then incubated aerobically at 37° C. for 18-20 hours (for S. aureus and E. coli). C. difficile was incubated anaerobically at 37° C. for 48 hours. C. albicans was incubated aerobically at 37° C. for 24 hours.
The minimum inhibitory concentrations (MICs) of the tested compounds and control drugs; linezolid, vancomycin, gentamicin (antibiotics) and fluconazole and 5-fluorocytosine (5-FC) (antifungal drugs) were determined using the broth microdilution method, according to guidelines outlined by the Clinical and Laboratory Standards Institute (CLSI)^1, 2, 3 against clinically-relevant bacterial (methicillin-resistant Staphylococcus aureus (MRSA), Escherichia coli and Clostridium difficile strains) and fungal (Candida albicans) strain. S. aureus and E. coli were grown aerobically overnight on tryptone soy agar plates at 37° C. C. difficile was grown anaerobically on brain heart infusion supplemented agar at 37° C. for 48 hours. C. albicans was grown aerobically overnight on yeast peptone dextrose (YPD) agar plate at 35° C. Afterwards, a bacterial solution equivalent to 0.5 McFarland standard was prepared and diluted in cation-adjusted Mueller-Hinton broth (CAMHB) (for S. aureus and E. coli) to achieve a bacterial concentration of about 5×10^5 CFU/mL. C. difficile was diluted in brain heart infusion supplemented broth, supplemented with yeast extract, hemin and vitamin K to achieve a bacterial concentration of about 5×10^5 CFU/mL. C. albicans was diluted in Roswell Park Memorial Institute (RPMI 1640) medium with glutamine and without bicarbonate (GIBCO by Life Technologies, Green Island, N.Y., USA) which was buffered to pH 7.0 with 0.165 M of [3-(N-morpholino) propanesulfonic acid]

[12] = ATCC15916, 99.9% reduction in CFU, read-out: MBC S. pneumoniae ATCC-15916
[13] = NRS101, 99.9% reduction in CFU, read-out: MBC S. epidermidis NRS 101
[14] = read-out: minimum inhibitory concentration (MIC) S. aureus (MRSA USA300), MRSA NRS384 (USA300), broth microdilution, 18-20 hours
[15] = MRSA NRS384 (USA300), broth microdilution, 18-20 hours, read-out: minimum inhibitory concentration (MIC) S. aureus (MRSA USA300)

## O=C(Nc1ccc(Oc2ccc(=O)[nH]n2)cc1)Nc1ccc(Cl)c(C(F)(F)F)c1 [MY31, 1-(4-chloro-3-(trifluoromethyl)phenyl)-3-(4-((6-oxo-1,6-dihydropyridazin-3-yl)oxy)phenyl)urea]
[1]; 99.9% reduction in CFU
  MBC: > 64 mg/L
[2]; 99.9% reduction in CFU
  MBC: > 64 mg/L
[3]; 99.9% reduction in CFU
  MBC: > 64 mg/L
[4]; [12]
  MBC: 4 mg/L (≈ 9.42 µM)
[5]; 99.9% reduction in CFU
  MBC: 2 mg/L (≈ 4.71 µM)
[6]; [13]
  MBC: 1 mg/L (≈ 2.35 µM)
[7]; 99.9% reduction in CFU
  MBC: 4 mg/L (≈ 9.42 µM)
[8]; 99.9% reduction in CFU
  MBC: > 64 mg/L
[9]; 99.9% reduction in CFU
  MBC: 2 mg/L (≈ 4.71 µM)
[10]
  MIC: 0.5 mg/L
[11]; [14]
  MIC: 0.5 to 1 mg/L (≈ 1.18 to 2.35 µM)

## CN[C@H](CC(C)C)C(=O)N[C@H]1C(=O)N[C@@H](CC(N)=O)C(=O)N[C@H]2C(=O)N[C@H]3C(=O)N[C@H](C(=O)N[C@H](C(=O)O)c4cc(O)cc(O)c4-c4cc3ccc4O)[C@H](O)c3ccc(c(Cl)c3)Oc3cc2cc(c3O[C@@H]2O[C@H](CO)[C@@H](O)[C@H](O)[C@H]2O[C@H]2C[C@](C)(N)[C@H](O)[C@H](C)O2)Oc2ccc(cc2Cl)[C@H]1O [Vancomycin, reference compound]
[1]
  MBC: 64 mg/L (≈ 44.2 µM)
[2]
  MBC: > 64 mg/L
[3]
  MBC: 2 mg/L (≈ 1.38 µM)
[4]; ATCC15916, read-out: MBC S. pneumoniae ATCC-15916
  MBC: 1 mg/L (≈ 0.69 µM)
[5]
  MBC: 2 mg/L (≈ 1.38 µM)
[6]; NRS101, read-out: MBC S. epidermidis NRS 101
  MBC: 2 mg/L (≈ 1.38 µM)
[7]
  MBC: > 64 mg/L
[8]
  MBC: 2 mg/L (≈ 1.38 µM)
[9]
  MBC: 1 mg/L (≈ 0.69 µM)
[10]
  MIC: 1 mg/L
[11]; read-out: minimum inhibitory concentration (MIC) S. aureus (MRSA USA300)
  MIC: 1 mg/L (≈ 0.69 µM)

## O=C(Nc1cccc(Nc2ccc(Cl)nn2)c1)Nc1ccc(Cl)c(Cl)c1 [MY14, 1-(3-((6-chloropyridazin-3-yl)amino)phenyl)-3-(3,4-dichlorophenyl)urea]
[1]; 99.9% reduction in CFU
  MBC: > 64 mg/L
[2]; 99.9% reduction in CFU
  MBC: 32 mg/L (≈ 78.3 µM)
[3]; 99.9% reduction in CFU
  MBC: 8 mg/L (≈ 19.6 µM)
[4]; [12]
  MBC: 64 mg/L (≈ 157 µM)
[5]; 99.9% reduction in CFU
  MBC: 8 mg/L (≈ 19.6 µM)
[6]; [13]
  MBC: 64 mg/L (≈ 157 µM)
[7]; 99.9% reduction in CFU
  MBC: > 64 mg/L
[8]; 99.9% reduction in CFU
  MBC: 32 mg/L (≈ 78.3 µM)
[9]; 99.9% reduction in CFU
  MBC: 8 mg/L (≈ 19.6 µM)
[10]
  MIC: 8 mg/L

## O=C(Nc1ccc(Oc2ccc(=O)[nH]n2)cc1)Nc1ccc(Cl)c(Cl)c1 [MY24, 1-(3,4-dichlorophenyl)-3-(4-((6-oxo-1,6-dihydropyridazin-3-yl)oxy)phenyl)urea]
[1]; 99.9% reduction in CFU
  MBC: > 64 mg/L
[2]; 99.9% reduction in CFU
  MBC: > 64 mg/L
[3]; 99.9% reduction in CFU
  MBC: > 64 mg/L
[4]; [12]
  MBC: 64 mg/L (≈ 164 µM)
[5]; 99.9% reduction in CFU
  MBC: 16 mg/L (≈ 40.9 µM)
[6]; [13]
  MBC: 8 mg/L (≈ 20.4 µM)
[7]; 99.9% reduction in CFU
  MBC: 16 mg/L (≈ 40.9 µM)
[8]; 99.9% reduction in CFU
  MBC: > 64 mg/L
[9]; 99.9% reduction in CFU
  MBC: 32 mg/L (≈ 81.8 µM)
[10]
  MIC: 1 mg/L
[11]; [14]
  MIC: 0.5 to 1 mg/L (≈ 1.28 to 2.56 µM)

## O=C(Nc1ccc(-c2ccc(=O)[nH]n2)cc1)Nc1ccc(Cl)c(Cl)c1 [MY21, 1-(3,4-dichlorophenyl)-3-(4-(6-oxo-1,6-dihydropyridazin-3-yl)phenyl)urea]
[1]; 99.9% reduction in CFU
  MBC: 16 mg/L (≈ 42.6 µM)
[2]; 99.9% reduction in CFU
  MBC: 8 mg/L (≈ 21.3 µM)
[3]; 99.9% reduction in CFU
  MBC: 8 mg/L (≈ 21.3 µM)
[4]; [12]
  MBC: 4 mg/L (≈ 10.7 µM)
[5]; 99.9% reduction in CFU
  MBC: 4 mg/L (≈ 10.7 µM)
[6]; [13]
  MBC: 4 mg/L (≈ 10.7 µM)
[7]; 99.9% reduction in CFU
  MBC: 4 mg/L (≈ 10.7 µM)
[8]; 99.9% reduction in CFU
  MBC: 4 mg/L (≈ 10.7 µM)
[9]; 99.9% reduction in CFU
  MBC: 1 mg/L (≈ 2.67 µM)
[10]
  MIC: 0.5 mg/L
[11]; [14]
  MIC: 0.5 to 1 mg/L (≈ 1.33 to 2.67 µM)

## CC(=O)NC[C@H]1CN(c2ccc(N3CCOCC3)c(F)c2)C(=O)O1 [Linezolid, reference compound]
[1]; 99.9% reduction in CFU
  MBC: 16 mg/L (≈ 47.4 µM)
[2]; 99.9% reduction in CFU
  MBC: 16 mg/L (≈ 47.4 µM)
[3]; 99.9% reduction in CFU
  MBC: 64 mg/L (≈ 190 µM)
[4]; [12]
  MBC: 32 mg/L (≈ 94.9 µM)
[5]; 99.9% reduction in CFU
  MBC: 16 mg/L (≈ 47.4 µM)
[6]; [13]
  MBC: 8 mg/L (≈ 23.7 µM)
[7]; 99.9% reduction in CFU
  MBC: 16 mg/L (≈ 47.4 µM)
[8]; 99.9% reduction in CFU
  MBC: 8 mg/L (≈ 23.7 µM)
[9]; 99.9% reduction in CFU
  MBC: > 64 mg/L
[10]
  MIC: 0.5 mg/L
[11]; [15]
  MIC: 1 mg/L (≈ 2.96 µM)

## CNC(=O)c1cc(Oc2ccc(NC(=O)Nc3ccc(Cl)c(C(F)(F)F)c3)cc2)ccn1 [Sorafenib, reference compound]
[1]; 99.9% reduction in CFU
  MBC: > 64 mg/L
[2]; 99.9% reduction in CFU
  MBC: > 64 mg/L
[3]; 99.9% reduction in CFU
  MBC: > 64 mg/L
[4]; [12]
  MBC: > 64 mg/L
[5]; 99.9% reduction in CFU
  MBC: > 64 mg/L
[6]; [13]
  MBC: > 64 mg/L
[7]; 99.9% reduction in CFU
  MBC: > 64 mg/L
[8]; 99.9% reduction in CFU
  MBC: > 64 mg/L
[9]; 99.9% reduction in CFU
  MBC: > 64 mg/L
[10]
  MIC: 4 mg/L
[11]; [15]
  MIC: 4 mg/L (≈ 8.61 µM)
